Toxic doses and inconclusive results are not listed. Rule for the calls: active = survival T/C of 150% or more; inactive = T/C below 125% in these data.
System: BDF1 mice, Lewis lung carcinoma iv, survival T/C
Test: NCI In Vivo Anticancer Drug Screen. Data for tumor model Lewis Lung Carcinoma (intravenous) in B6D2F1 (BDF1) mice
Details: endpoint: median survival time, higher = longer survival
Procedure: The antitumor activity of compounds was measured in mice bearing transplantable tumors. Survival or tumor size were measured and the results are expressed as the measurement made in the treated group (T) divided by the measurement made in the vehicle treated control group (C). The tumor model used in this assay is Lewis Lung Carcinoma (intravenous) in B6D2F1 (BDF1) mice

[1] = dose: 12.5 mg/kg/injection, schedule: Q01DX009 (ip), vehicle: saline with Tween-80
[2] = dose: 25.0 mg/kg/injection, schedule: Q01DX009 (ip), vehicle: saline with Tween-80
[3] = dose: 50.0 mg/kg/injection, schedule: Q01DX009 (ip), vehicle: saline with Tween-80
[4] = dose: 100.0 mg/kg/injection, schedule: Q01DX009 (ip), vehicle: saline with Tween-80
[5] = dose: 200.0 mg/kg/injection, schedule: Q01DX009 (ip), vehicle: saline with Tween-80
[6] = dose: 6.25 mg/kg/injection, schedule: Q01DX009 (ip), vehicle: saline
[7] = dose: 12.5 mg/kg/injection, schedule: Q01DX009 (ip), vehicle: saline
[8] = dose: 6.25 mg/kg/injection, schedule: Q01DX009 (ip), vehicle: saline with Tween-80
[9] = dose: 25.0 mg/kg/injection, schedule: Q01DX009 (ip), vehicle: Klucel (hydroxypropylcellulose) (HPC)
[10] = dose: 50.0 mg/kg/injection, schedule: Q01DX009 (ip), vehicle: Klucel (hydroxypropylcellulose) (HPC)
[11] = dose: 4.0 mg/kg/injection, schedule: Q01DX009 (ip), vehicle: saline with Tween-80
[12] = dose: 12.5 mg/kg/injection, schedule: Q01DX009 (ip), vehicle: Klucel (hydroxypropylcellulose) (HPC)
[13] = dose: 100.0 mg/kg/injection, schedule: Q01DX009 (ip), vehicle: Klucel (hydroxypropylcellulose) (HPC)
[14] = dose: 200.0 mg/kg/injection, schedule: Q01DX009 (ip), vehicle: Klucel (hydroxypropylcellulose) (HPC)

Measured: T/C

CC1(C)OC1CS(=O)c1ccccc1 (configuration not stated)
inactive: [1] 105 % of control | [2] 99 % of control | [3] 91 % of control | [4] 96 % of control | [5] 95 % of control | dose: 400.0 mg/kg/injection, schedule: Q01DX009 (ip), vehicle: saline with Tween-80 114 % of control

O=C1C=CC(=Nc2ccc3c(c2)C(Br)c2ccccc2-3)O1 (configuration not stated)
inactive: dose: 5.0 mg/kg/injection, schedule: Q01DX009 (ip), vehicle: saline with Tween-80 115 % of control | dose: 10.0 mg/kg/injection, schedule: Q01DX009 (ip), vehicle: saline with Tween-80 111 % of control | dose: 20.0 mg/kg/injection, schedule: Q01DX009 (ip), vehicle: saline with Tween-80 112 % of control

NC(=S)n1cccn1
inactive: [3] 99 % of control | [4] 94 % of control | [5] 103 % of control

NC(=O)c1ncn(C2OC(CO)C(O)C2O)n1 (configuration not stated)
inactive: dose: 10.0 mg/kg/injection, schedule: Q01DX009 (ip), vehicle: saline 110 % of control | dose: 20.0 mg/kg/injection, schedule: Q01DX009 (ip), vehicle: saline 110 % of control | dose: 40.0 mg/kg/injection, schedule: Q01DX009 (ip), vehicle: saline 101 % of control | dose: 80.0 mg/kg/injection, schedule: Q01DX009 (ip), vehicle: saline 97 % of control | dose: 160.0 mg/kg/injection, schedule: Q01DX009 (ip), vehicle: saline 106 % of control

COc1cc2cc3cc4cc(OC)c(OC)cc4c(C)[n+]3cc2cc1OC (tested in a mixture with another compound)
inactive: [6] 104 % of control | [7] 106 % of control | dose: 25.0 mg/kg/injection, schedule: Q01DX009 (ip), vehicle: saline 107 % of control | dose: 50.0 mg/kg/injection, schedule: Q01DX009 (ip), vehicle: saline 111 % of control

CC1OC(O[C@H]2/C=C/C=C/C=C/C=C/C=C/C=C/C=C/[C@H](C)[C@@H](O)[C@@H](C)[C@H](C)OC(=O)C[C@H](O)C[C@H](O)CC[C@@H](O)[C@H](O)C[C@H](O)C[C@]3(O)C[C@H](O)[C@@H](C(=O)O)[C@H](C2)O3)C(O)C(N)C1O (some centres not stated)
inactive: dose: 1.0 mg/kg/injection, schedule: Q01DX009 (ip), vehicle: saline 105 % of control | dose: 2.0 mg/kg/injection, schedule: Q01DX009 (ip), vehicle: saline 109 % of control | dose: 8.0 mg/kg/injection, schedule: Q01DX009 (ip), vehicle: saline 109 % of control | dose: 16.0 mg/kg/injection, schedule: Q01DX009 (ip), vehicle: saline 124 % of control

ClC1(c2ccccc2)c2ccc(Br)cc2-c2cc(Br)ccc21
inactive: [2] 102 % of control | [3] 105 % of control | [4] 110 % of control

CN=C(N)N/N=C(\c1ccccc1)c1ccc(Br)cc1
inactive: dose: 1.5 mg/kg/injection, schedule: Q01DX009 (ip), vehicle: saline with Tween-80 95 % of control | dose: 3.0 mg/kg/injection, schedule: Q01DX009 (ip), vehicle: saline with Tween-80 98 % of control | [8] 99 % of control | [1] 105 % of control

CCc1cc(C(N)=S)ccn1
inactive: dose: 72.0 mg/kg/injection, schedule: Q01DX007 (ip), vehicle: Klucel (hydroxypropylcellulose) (HPC) 96 % of control | dose: 102.9 mg/kg/injection, schedule: Q01DX007 (ip), vehicle: Klucel (hydroxypropylcellulose) (HPC) 95 % of control | dose: 147.0 mg/kg/injection, schedule: Q01DX007 (ip), vehicle: Klucel (hydroxypropylcellulose) (HPC) 86 % of control | dose: 300.0 mg/kg/injection, schedule: Q01DX007 (ip), vehicle: Klucel (hydroxypropylcellulose) (HPC) 99 % of control

COC1=C(NC(C)=O)C(=O)c2nc(-c3nc(C(=O)O)c(C)c(-c4ccc(OC)c(OC)c4O)c3N)ccc2C1=O
inactive: dose: 6.0 mg/kg/injection, schedule: Q01DX009 (ip), vehicle: Klucel (hydroxypropylcellulose) (HPC) 101 % of control | dose: 12.0 mg/kg/injection, schedule: Q01DX009 (ip), vehicle: Klucel (hydroxypropylcellulose) (HPC) 96 % of control | [9] 98 % of control | [10] 97 % of control

O=C1c2ccccc2C(=O)c2c(NCCNCCO)ccc(NCCNCCO)c21
inactive: dose: 1.0 mg/kg/injection, schedule: Q01DX005 (ip), vehicle: saline with Tween-80 119 % of control | dose: 1.0 mg/kg/injection, schedule: Q01DX009 (ip), vehicle: saline with Tween-80 100 % of control | dose: 2.0 mg/kg/injection, schedule: Q01DX005 (ip), vehicle: saline 102 % of control | dose: 2.0 mg/kg/injection, schedule: Q01DX009 (ip), vehicle: saline with Tween-80 110 % of control | dose: 4.0 mg/kg/injection, schedule: Q01DX005 (ip), vehicle: saline with Tween-80 109 % of control | [11] 102 % of control

CC(C)(C)C1CCCCC1
inactive: [12] 94 % of control | [9] 98 % of control | [10] 95 % of control | [13] 102 % of control | [14] 95 % of control

C=C1C(=O)OCC1(C(=O)OCC)C(=O)OCC
inactive: [11] 114 % of control | dose: 8.0 mg/kg/injection, schedule: Q01DX009 (ip), vehicle: saline with Tween-80 120 % of control

CCC1OCC(C(Cl)CCl)O1 (configuration not stated)
inactive: dose: 3.12 mg/kg/injection, schedule: Q01DX009 (ip), vehicle: saline with Tween-80 103 % of control | [8] 97 % of control | [12] 97 % of control | [1] 108 % of control | [9] 98 % of control | [2] 109 % of control | [10] 97 % of control | [3] 94 % of control | [13] 96 % of control | [4] 109 % of control | [14] 97 % of control

COc1ccc2[nH]c3ccc4cc[n+](CCN5CCC(C6CCN(CC[n+]7ccc8ccc9[nH]c%10ccc(OC)cc%10c9c8c7)CC6)CC5)cc4c3c2c1
inactive: [12] 98 % of control | [9] 114 % of control

CC12C(=O)C=CCC1=CCC1C2CCC2(O)C(=O)OC3(C)C4CC5(C)C(COC16OC23C5C6=O)C(=O)O4 (configuration not stated)
inactive: [9] 101 % of control | [10] 100 % of control | [13] 105 % of control

CCCCCC(O)C1C(=O)OC(C)C(O)/C=C/C=C/C=C/C=C\C=C(\C)C(O)CC(O)CC(O)CC(O)CC(O)CC(O)CC1O (configuration not stated)
inactive: dose: 3.12 mg/kg/injection, schedule: Q01DX009 (ip), vehicle: distilled water + alcohol 103 % of control | dose: 6.25 mg/kg/injection, schedule: Q01DX009 (ip), vehicle: distilled water + alcohol 96 % of control | dose: 12.5 mg/kg/injection, schedule: Q01DX009 (ip), vehicle: distilled water + alcohol 106 % of control | dose: 25.0 mg/kg/injection, schedule: Q01DX009 (ip), vehicle: distilled water + alcohol 96 % of control

NNC(=S)N/N=C/c1ccccn1
inactive: dose: 1.56 mg/kg/injection, schedule: Q01DX009 (ip), vehicle: saline 98 % of control | dose: 3.12 mg/kg/injection, schedule: Q01DX009 (ip), vehicle: saline 102 % of control | [6] 107 % of control | [7] 114 % of control

Nc1nc(=S)c2ncn(C3OC(COC(=O)c4ccc(Cl)cc4)C(OC(=O)c4ccc(Cl)cc4)C3OC(=O)c3ccc(Cl)cc3)c2[nH]1 (configuration not stated)
inactive: dose: 18.75 mg/kg/injection, schedule: Q01DX009 (ip), vehicle: Klucel (hydroxypropylcellulose) (HPC) 103 % of control | dose: 37.5 mg/kg/injection, schedule: Q01DX009 (ip), vehicle: Klucel (hydroxypropylcellulose) (HPC) 106 % of control | dose: 150.0 mg/kg/injection, schedule: Q01DX009 (ip), vehicle: Klucel (hydroxypropylcellulose) (HPC) 89 % of control

COc1cccc2c1C(=O)c1c(O)c3c(c(O)c1C2=O)C[C@@](O)(C(=O)CO)C[C@@H]3OC1CC(N)CC(C)O1 (some centres not stated)
inactive: dose: 0.18 mg/kg/injection, schedule: Q01DX009 (ip), vehicle: water 108 % of control | dose: 0.37 mg/kg/injection, schedule: Q01DX009 (ip), vehicle: water 112 % of control
